Results as given in US20230172203A1, “PLANT METABOLISM PROMOTING COMPOSITIONS AND METHODS OF USE” (Panoptic Ag Solutions LLC, priority 2021, published 2023).

Columns and labels:
[1] = system: Wheat (Triticum aestivum); test: 2022 Replicated South Dakota Spring Wheat Field Trial; assay type: in vivo
Description: Wheat seed (Triticum aestivum) was planted at a rate of 90 lbs/acre. The treated plot size was 5 ft×40 ft and this was replicated 4 times. A 20% L-theanine solution was applied at 8 fl. oz./acre to the foliage of the wheat approximately 40 days after emergence. The trial was fertilized and maintained under grower standard practices.

Almond trees = test: 2021 Replicated California Almond Trial; assay type: in vivo
Protocol: Almond trees (n=6) were treated with a 20% aqueous solution of L-theanine at 1 pint per acre at pink bud and full bloom. Additional applications at 0.5 pint per acre soil were applied at petal fall, petal fall +3 weeks, and petal fall +6 weeks for a total of applications. The trial was maintained at grower standard fertilizer and pest management throughout the course of the trial.

Soybean plants = test: 2021 Greenhouse Soybean Trial (foliar application); assay type: in vivo
Protocol: The base formulation used in greenhouse trials was an aqueous solution of L-theanine (20% by weight). The base formulation was further diluted with water as detailed for each trial. Soybean seeds (n=12/treatment) were planted in commercial potting soil in 1 gallon pots. […] The plants were grown for another 14 days then harvested.

Mature cherry trees = test: 2022 Replicated California Cherry Trial; assay type: in vivo
Protocol: Mature cherry trees (n=6) were treated with a 10% aqueous L-theanine solution at 1 pint per acre with application timings at Early Bloom, Petal Fall, and Early Fruit set. The trial was maintained at grower standard fertilizer and pest management throughout the course of the trial.

[2] = system: CalWonder variety pepper plant seedlings; test: 2021 Greenhouse Bell Pepper Trial; assay type: in vivo
Description: The base formulation used in greenhouse trials was an aqueous solution of L-theanine (20% by weight). The base formulation was further diluted with water as detailed for each trial. CalWonder variety pepper plant seedlings (n=4/treatment) were planted in commercial potting soil and then were transplanted to 3-gallon pots. L-theanine treatment was applied at the equivalent of 1 pint in 100 gallons of water (125 ppm) and sprayed till runoff. Two treatment applications were made to the plants approximately 14 days apart.

Corn plants = test: 2021 Greenhouse Corn Trial (drench, two rates); assay type: in vivo; details: for Plant Biomass / Root Length: drench 50 mL per pot, harvested 21 days later
Protocol: The base formulation used in greenhouse trials was an aqueous solution of L-theanine (20% by weight). The base formulation was further diluted with water as detailed for each trial. Corn seed (n=14/treatment) was planted in commercial potting soil in 3-gallon pots. Approximately 14 days after emergence, an aqueous solution of L-theanine was applied at a rate of 0.2 mL (Treatment 2) and 0.4 mL (Treatment 3) per 1000 mL water. The resulting solutions were drenched at a rate of 50 mL per pot. The plants were grown for an additional 21 days then harvested.

Onions = test: 2021 Pennsylvania Onion Replicated Field Trial; assay type: in vivo
Protocol: Onions were maintained under grower standard practices. Four replications were performed per treatment. In this trial, applications of L-theanine were performed every 14 days for a total of 4 applications.

Soybean (Glycine max) = test: 2021 Replicated Nebraska Soybean Field Trial; assay type: in vivo
Description: Soybean seeds (Glycine max) were planted at a rate of 150,000 seeds per acre. The treated plot size was 5 ft×40 ft and this was replicated 4 times. A 20% aqueous L-theanine solution was applied to the foliage at 8 fl. oz./acre at the R2 (full flowering) growth stage. The trial was fertilized and maintained under grower standard practices.

tea plants = details: exogenous application; background statement; cited from earlier work
Corn seed = test: 2020 Greenhouse Corn Seed Treatment Trial; assay type: in vivo
Protocol: The base formulation used in greenhouse trials was an aqueous solution of L-theanine (20% by weight). The base formulation was further diluted with water as detailed for each trial. Corn seed (n=9/treatment) was treated with an aqueous solution of L-theanine at a rate of 1.0 fl. oz. per hundredweight of corn seed. The seeds were planted in commercial potting soil in 1-gallon pots. The plants were grown for 21 days before they were harvested.

[3] = above the untreated check, foliar 125 ppm
[4] = foliar, 8 fl. oz./50 gallons of water (125 ppm) till runoff, harvested 14 days later
[5] = foliar spray 125 ppm till runoff, two applications ~14 days apart
[6] = vs untreated check, 125 ppm foliar, two applications
[7] = Treatment 2 (0.2 mL per 1000 mL), above the untreated check
[8] = Treatment 2: 8 fl. oz./acre (0.2 mL per 1000 mL water)
[9] = Treatment 3 (0.4 mL per 1000 mL), above the untreated check
[10] = Treatment 3: 16 fl. oz./acre (0.4 mL per 1000 mL water)
[11] = vs untreated check, 4 applications
[12] = over the untreated check, seed treatment
[13] = seed treatment 1.0 fl. oz. per hundredweight of seed, harvested after 21 days

## CCNC(=O)CC[C@H](N)C(=O)O [L-theanine]
[1]; 20% solution, foliar, 8 fl. oz./acre ~40 days after emergence
  Yield: 53.9 a Bushels/Acre
[1]; over the untreated control
  increase in yield: 5.3 bushels/acre
  increase in yield, percent: 10.9%
Almond trees; 20% aqueous solution, 1 pint per acre at pink bud and full bloom, 0.5 pint per acre soil at petal fall, +3 weeks, +6 weeks
  Yield: 152.2 a lbs/tree
Almond trees; vs untreated check
  increase in almond yield (average): 15.3 lbs per tree
  increase in almond yield, percent: 11.2%
Soybean plants; [3]
  increase in biomass: 2.2 g
  increase in biomass, percent: 20.1%
  increase in root length: 254.6 cm
  increase in root length, percent: 13.2%
  increase in root tips: 1345.1
  increase in root tips, percent: 36.1%
Soybean plants; [4]
  Plant Biomass: 13.02 a g
  Root Length: 2185.8 a cm
  Root Tips (count): 5075.9 a count
Mature cherry trees; 10% aqueous solution at 1 pint per acre, Early Bloom, Petal Fall, Early Fruit set
  Yield: 70.3 a Boxes/Acre
Mature cherry trees; over the untreated check
  increase in yield: 12.8 boxes/acre
  increase in yield, percent: 22.3%
[2]; [5]
  Basal Diameter: 5.55 a mm
  Fruit (count): 5.5 a count
  Plant Height: 26 a in
[2]; [6]
  improvement in basal diameter: 1.82 mm
  improvement in basal diameter, percent: 48.8%
  improvement in fruit count: 3.0
  improvement in fruit count, percent: 120%
Corn plants; [7]
  change in biomass: 9.0 grams
  change in biomass, percent: 13.9%
  change in root length: −106.8
  change in root length, percent: −6.0%
Corn plants; [8]
  Plant Biomass: 74.0 a g
  Root Length: 1683.8 a cm
Corn plants; [9]
  change in biomass: 9.1 grams
  change in biomass, percent: 14.1%
  change in root length: 65.3
  change in root length, relative (in brackets): 3.6
Corn plants; [10]
  Plant Biomass: 74.1 a g
  Root Length: 1855.9 a cm
Onions; applications every 14 days, total of 4 applications
  Fresh Onion Mass: 227 a g
Onions; treated over untreated onions
  size and uniformity of onions (FIG. 2, in words): increase in size and uniformity
Onions; [11]
  increase in biomass of the onions: 75.0 g
  increase in biomass of the onions, percent: 49.3%
Soybean (Glycine max); 20% aqueous solution, foliar, 8 fl. oz./acre at R2 (full flowering)
  Yield: 84.6 a Bushels/Acre
Soybean (Glycine max); over the untreated control
  increase in yield: 6.0 bushels per acre
  increase in yield, percent: 7.6%
Tea plants
  quality and yield of tea plants (in words): can improve the quality and yield of tea plants by increasing the number of usable leaves
Corn seed; [12]
  increase in biomass: 1.3 g
  increase in biomass, percent: 4.4%
  increase in root length: 69.1 cm
  increase in root length, percent: 7.0%
  increase in root tips: 883.8
  increase in root tips, percent: 18.5%
Corn seed; [13]
  Plant Biomass: 29.88 a g
  Root Length: 1049.08 a cm
  Root Tips (#): 5656.2 a #
